# In patent publication US20170184612A1, “USE OF LEUKOCYTES AND NOVEL BIOMARKERS IN THE DIAGNOSIS, CONFIRMATION, AND TREATMENT OF A NEUROLOGICAL DISORDER” (The Trustees of Columbia University in the City of New York, priority 2014, published 2017):
# Assays:
# [1] = system: peripheral blood mononuclear cells (PBMC), T cells; test: ELISpot assay, IL-5 release (SFC) after stimulation with a-synuclein epitope pools; type: cell-based, human
# Outline: (§1)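 Cytokine-secreting T cells were enumerated as SFC following 22 h peptide-pool stimulation of gradient-purified PBMC at 37 C. A threshold of 20 SFC per million cells defined confirmed release; group differences were assessed by Mann-Whitney U test.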
# [2] = system: peripheral blood mononuclear cells (PBMC), T cells; test: ELISpot assay, gamma-interferon release (SFC) after stimulation with a-synuclein epitope pools; type: cell-based, human; conditions: for Pool +: IFNg, Pool Stimulated, number of donors with a positive response, Donors tested 1
# Outline: as §1
# [3] = Patients Summary, PD patients, of donors tested (peptide)
# [4] = Patients Summary, PD patients, single peptide
# [5] = number of donors positive to the single peptide, second 'Pool Stimulated' section (from r296), 12 donors tested
# [6] = peptide + / donors tested (peptide), second 'Pool Stimulated' section (from r296), 12 donors tested
# [7] = single peptide, second 'Pool Stimulated' section (from r296), 12 donors tested
# [8] = Patients Summary, Phospho pool peptides
# [9] = Patients Summary, Phospho pool peptides, 10 donors tested
# [10] = peptides of pool 'Poshpho', 8 donors tested
# [11] = peptides of pool 'Poshpho', 8 donors tested, number of donors positive
# [12] = pool 'Phospho' (phosphorylated peptides)
Substance,"IL-g Peptide + (donors positive to the peptide) [1, 3]","IL-g Response Frequency [1, 4] [%]","IL-g Total SFC [1, 4] [SFC]","IL-g Peptide + [1, 5]","IL-g Response Frequency [1, 6] [%]","IL-g Total SFC [1, 7] [SFC]",Pool + [2],"IFNg Peptide + (donors positive to the peptide) [2, 3]","IFNg Response Frequency [2, 4] [%]","IFNg Total SFC [2, 4] [SFC]","IFNg Peptide + [2, 5]","IFNg Response Frequency [2, 6] [%]","IFNg Total SFC [2, 7] [SFC]",further results
3521.0077 (KTKEGVLYVGSKTKK; listed as Homo sapiens),6,75,3565,2,100,1814,1,5,63,3505,2,100,3020,"IL-g Avg SFC [1, 4]: 595 SFC; IL-g Avg SFC [1, 7]: 3907 SFC; IFNg Avg SFC [2, 4]: 701 SFC; IFNg Avg SFC [2, 7]: 1510 SFC"
3521.0011 (QVTNVGGAV; listed as Homo sapiens),0,0,0,0,0,0,0,0,0,0,0,0,0,
3521.0015 (KTKEQVTNV; listed as Homo sapiens),0,0,0,0,0,0,0,0,0,0,0,0,0,
3521.0072 (EGVVHGVTTVAEKTK; listed as Homo sapiens),0,0,0,0,0,0,1,0,0,0,1,50,93.3,"IFNg Avg SFC [2, 7]: 93.3 SFC"
3521.005 (APGKTKEGVL; listed as Homo sapiens),2,25,137,0,0,0,0,1,13,44,0,0,0,"IL-g Avg SFC [1, 4]: 67.5 SFC; IFNg Avg SFC [2, 4]: 44 SFC"
3521.0041 (EGILEDMPVD; listed as Homo sapiens),0,0,0,0,0,0,0,0,0,0,0,0,,
3521.0037 (LYVGSKTKEG; listed as Homo sapiens),1,17,754,,,,0,1,17,248,,,,"IL-g Avg SFC [1, 4]: 754 SFC; IFNg Avg SFC [2, 4]: 248 SFC"
3521.0068 (GVAEAPGKTK; listed as Homo sapiens),0,0,0,0,0,0,0,0,0,0,0,0,0,
3521.0027 (AYEMPSEEGY; listed as Homo sapiens),0,0,0,0,0,0,0,0,0,0,0,0,,"IL-g Avg SFC [1, 8]: 530 SFC; IL-g Response Frequency [1, 8]: 20%; IL-g Total SFC [1, 8]: 1060 SFC; IL-g Peptide + (donors positive to the peptide) [1, 9]: 2; IL-g Avg SFC [1, 10]: 87 SFC; IL-g Response Frequency [1, 10]: 13%; IL-g Total SFC [1, 10]: 87 SFC; IL-g Peptide + [1, 11]: 1; Pool + [2, 12]: 1; IFNg Avg SFC [2, 8]: 700 SFC; IFNg Response Frequency [2, 8]: 20%; IFNg Total SFC [2, 8]: 1400 SFC; IFNg Peptide + (donors positive to the peptide) [2, 9]: 2; IFNg Avg SFC [2, 10]: 53 SFC; IFNg Response Frequency [2, 10]: 13%; IFNg Total SFC [2, 10]: 53 SFC; IFNg Peptide + [2, 11]: 1"
3521.0026 (MPSEEGYQD; listed as Homo sapiens),0,0,0,1,50,66,0,0,0,0,0,0,,"IL-g Avg SFC [1, 8]: 773 SFC; IL-g Response Frequency [1, 8]: 10%; IL-g Total SFC [1, 8]: 773 SFC; IL-g Peptide + (donors positive to the peptide) [1, 9]: 1; IL-g Avg SFC [1, 10]: 93 SFC; IL-g Response Frequency [1, 10]: 13%; IL-g Total SFC [1, 10]: 93 SFC; IL-g Peptide + [1, 11]: 1; IL-g Avg SFC [1, 7]: 66 SFC; Pool + [2, 12]: 1; IFNg Avg SFC [2, 8]: 407 SFC; IFNg Response Frequency [2, 8]: 40%; IFNg Total SFC [2, 8]: 1627 SFC; IFNg Peptide + (donors positive to the peptide) [2, 9]: 4; IFNg Avg SFC [2, 10]: 27 SFC; IFNg Response Frequency [2, 10]: 13%; IFNg Total SFC [2, 10]: 27 SFC; IFNg Peptide + [2, 11]: 1"
3521.0005 (AVVTGVTAV; listed as Homo sapiens),0,0,0,0,0,0,0,0,0,0,0,0,0,
